The subject of data set [1] is A549. Nature of the data set: Cytotoxicity against human A549 cells treated for 72 hrs by MTT assay. The conditions noted are these: A549, 72 h. Type of data set: functional, cell-based. A general note: Tetrazolium dyes change colour on reduction, which living cells bring about.
For data set [2], the system named is HeLa. Nature of the data set: Cytotoxicity against human HeLa cells treated for 72 hrs by MTT assay. Type of data set: functional, cell-based.
Data set [3] has as its system MCF7. Nature of the data set: Cytotoxicity against human MCF7 cells treated for 72 hrs by MTT assay. Type of data set: functional, cell-based. The note with it: MCF7, 72 h.
The subject of data set [4] is SK-BR-3. Nature of the data set: Cytotoxicity against human SK-BR-3 cells treated for 72 hrs by MTT assay. The conditions noted are these: SK-BR-3, 72 h. Type of data set: functional, cell-based.
The test system of data set [5] is PC-3. Nature of the data set: Cytotoxicity against human PC-3 cells treated for 72 hrs by MTT assay. The conditions noted are these: PC-3, 72 h. Type of data set: functional, cell-based.
A short description of data set [6]: Cytotoxicity against HFF-1 cells measured after 72 hrs by WST-1 assay. Type of data set: toxicity, cell-based. The conditions noted are these: human.
Data set [7] concerns MDA-MB-231. Nature of the data set: Antiproliferative activity against human MDA-MB-231 cells measured after 72 hrs by WST-1 assay. Type of data set: functional, cell-based. The conditions noted are these: MDA-MB-231, 72 h.
Data set [8] deals with SNB-19. Nature of the data set: Antiproliferative activity against human SNB-19 cells measured after 72 hrs by WST-1 assay. Type of data set: functional, cell-based. The note with it: SNB-19, 72 h.
Data set [9] has as its system C32. Nature of the data set: Antiproliferative activity against human C32 cells measured after 72 hrs by WST-1 assay. Type of data set: functional, cell-based. The note with it: C32, 72 h.

pIC50: −log10 of the molar value. Bounds are passed on as bounds.

Turning to `Clc1ccc2c(Nc3ccc(CN4CCOCC4)c(-c4ccccc4)c3)ccnc2c1`, the pIC50 in data set [1] is 4.16; in data set [2], 4.26; in data set [3], less than 3.70; in data set [4], 4.12; in data set [5] it was 4.93.
For the molecule `Cn1c(SCC#CCN2CCOCC2)nc2c1c(=O)[nH]c(=O)n2C`, inhibition in data set [6] was half-maximal at 5.87 µM (IC50 at 72 h). Further, the pIC50 in [7] is 5.18; in data set [8], 5.86; in [9], 4.64.
Regarding `Cn1c(SCC#CCN2CCCC2)nc2c1c(=O)[nH]c(=O)n2C`, the IC50 at 72 h in data set [6] was 34.3 µM. Besides, the results for the pIC50 in data set [7], in [8] and in data set [9] were 3.33, 3.75 and 4.29, respectively.
In data set [6], `CCN(CC)CC#CCSc1nc(Cl)nc2nc(SCC#CCN(CC)CC)n(C)c12` yielded an IC50 at 72 h of 1 µM. Besides, the negative logarithm of the IC50 (pIC50) was 5.00 in data set [7], 5.54 in [8] and 5.27 in [9].
`Clc1ccc2c(Nc3ccc(CN4CCCCC4)cc3)ccnc2c1`: the pIC50 is less than 3.60 in data set [1]; more than 6.00 in data set [2]; 4.16 in [3]; 4.47 in data set [4]; 3.83 in [5].
The corresponding values for `CC(C)(C)NCc1ccc(Nc2ccnc3cc(Cl)ccc23)cc1` are 3.71, 4.44, less than 3.60, 4.43 and 3.83.
The corresponding values for `Clc1ccc(-c2cc(Nc3ccnc4cc(Cl)ccc34)ccc2CN2CCOCC2)cc1` are less than 3.70, less than 3.70, 3.77, 5.53 and 4.93.
`CCN(CC)CC#CCSc1nc(SCC#CCN(CC)CC)c2c(ncn2C)n1` displayed a half-inhibitory concentration (IC50) at 72 h in data set [6] of 5.95 µM. Moreover, the values for the pIC50 in data set [7], in data set [8] and in [9] were 4.41, 4.31 and 4.62, respectively.
The molecule `Cn1cnc2nc(SCC#CCN3CCCCC3)nc(SCC#CCN3CCCCC3)c21` registered a concentration for half-maximal inhibition (IC50) at 72 h in data set [6] of 3.98 µM. In addition, the pIC50 in data set [7] is 5.13; in data set [8], 5.33; in [9], 5.19.
In the case of `CCN(CC)Cc1ccc(Nc2ccnc3cc(Cl)ccc23)cc1`, the pIC50 was less than 3.60 in data set [1]; 5.69 in data set [2]; less than 3.60 in [3]; 3.92 in data set [4]; less than 3.60 in data set [5].
`Cn1cnc2nc(SCC#CCN3CCOCC3)nc(SCC#CCN3CCOCC3)c21` registered an IC50 at 72 h in data set [6] of 0.37 µM. Further, the pIC50 in data set [7] was 4.29; in data set [8], 4.67; in data set [9], 4.67.
`Cn1cnc2nc(SCC#CCN3CCCC3)nc(SCC#CCN3CCCC3)c21` returned a half-maximal inhibitory concentration (IC50) at 72 h in data set [6] of 10 µM. In addition, the pIC50 is 4.70 in data set [7], 4.71 in data set [8] and 5.17 in data set [9].
For `Cn1c(SCC#CCN2CCCCC2)nc2c1c(=O)[nH]c(=O)n2C`, in that order: 30.4 µM, 3.44, 3.78 and 3.45.
With `Clc1ccc2c(Nc3ccc(CN4CCCC4)c(-c4ccccc4)c3)ccnc2c1`, the pIC50 in data set [1] is 5.36; in data set [2] it was more than 6.00; in data set [3], 5.10; in data set [4] it was 8.05; in [5], 4.36.
The corresponding values for `Clc1ccc2c(Nc3ccc(CN4CCOCC4)cc3)ccnc2c1` are less than 3.60, more than 6.00, 4.16, 5.21 and 4.93.
On to `Cn1c(SCC#CCN2CCCCC2)nc2nc(Cl)nc(SCC#CCN3CCCCC3)c21`, for which the IC50 at 72 h in data set [6] is 5.5 µM. In addition, the pIC50 is 4.42 in data set [7], 4.93 in data set [8] and 4.72 in data set [9].
The corresponding values for `Cn1c(SCC#CCN2CCOCC2)nc2nc(Cl)nc(SCC#CCN3CCOCC3)c21` are 36.4 µM, 4.13, 4.58 and 5.39.
With `Clc1ccc2c(Nc3ccc(CN4CCCCC4)c(-c4ccccc4)c3)ccnc2c1`, the pIC50 is less than 3.68 in data set [1]; 5.25 in [2]; less than 3.70 in [3]; 4.19 in [4]; 4.13 in [5].
For `Clc1ccc2c(Nc3ccc(CN4CCCC4)cc3)ccnc2c1`, in that order: 4.23, 4.55, 4.33, 4.90 and 4.37.
For `Cn1c(SCC#CCN2CCCC2)nc2nc(Cl)nc(SCC#CCN3CCCC3)c21`, 3.63 µM corresponded to half-maximal inhibition in data set [6] (IC50 at 72 h). Further, the figures for the pIC50 in data set [7], in data set [8] and in data set [9] were 5.42, 6.28 and 5.34, respectively.
Regarding `CCN(CC)Cc1ccc(Nc2ccnc3cc(Cl)ccc23)cc1-c1ccccc1`, the pIC50 in data set [1] was 4.47; in data set [2] it was less than 3.70; in data set [3] it was less than 3.70; in [4], 5.44; in data set [5], 4.47.
For `Clc1ccc(-c2cc(Nc3ccnc4cc(Cl)ccc34)ccc2CN2CCCC2)cc1`, the pIC50 in data set [1] was less than 3.70; in data set [2], 4.50; in data set [3], less than 3.70; in data set [4] it was 4.49; in data set [5], 4.37.
For the molecule `COc1cc2c(c(OC)c1OC)-c1ccc(OC)c(=O)cc1[C@@H](NC(C)=O)CC2` [COLCHICINE], the results for the pIC50 in data set [3], in [4] and in data set [5] were 4.60, 7.40 and 7.52, respectively.
As for `CN1CCN(Cc2ccc(Nc3ccnc4cc(Cl)ccc34)cc2-c2ccc(Cl)cc2)CC1`, the negative-log IC50 (pIC50) in [1] is 4.36; in data set [2] it was more than 6.00; in [3], 4.60; in data set [4], 4.78; in data set [5] it was 4.62.
As for `COc1cccc2c1C(=O)c1c(O)c3c(c(O)c1C2=O)C[C@@](O)(C(=O)CO)C[C@@H]3O[C@H]1C[C@H](N)[C@H](O)[C@H](C)O1` [DOXORUBICIN], the pIC50 in data set [2] was 5.61; in data set [3], 5.44; in [4], 5.63; in data set [5], 5.78.
With `Clc1ccc(-c2cc(Nc3ccnc4cc(Cl)ccc34)ccc2CN2CCCCC2)cc1`, the pIC50 in data set [1] is less than 3.70; in data set [2], less than 3.70; in [3] it was less than 3.70; in [4], 5.53; in [5], less than 3.70.
The molecule `CCN(CC)CC#CCSc1nc2c(c(=O)[nH]c(=O)n2C)n1C` had an IC50 at 72 h in [6] of 3.68 µM. Besides, the pIC50 is 4.17 in data set [7], 5.83 in [8] and 4.58 in data set [9].

A word on the pIC50: it is the negative decadic logarithm of the IC50, by convention in mol/L. Low values mean a high IC50, high ones a low IC50. For orientation: IC50 means the concentration at which inhibition is half-maximal.

(Values after ChEMBL document CHEMBL5126543, “Tandem construction of biological relevant aliphatic 5-membered N-heterocycles” (Eur J Med Chem, 2022).)
